Data: ChEMBL document CHEMBL1641396, “4-Oxo-1,4-dihydropyridines as selective CB2 cannabinoid receptor ligands: structural insights into the design of a novel inverse agonist series” (J Med Chem, 2010)

Key:
Cannabinoid receptor 1 = Cannabinoid receptor 1 (Homo sapiens, UniProt P21554); assay: Displacement of [3H]-SR141716A from human CB1 receptor expressed in CHO cells after 1 hr; format: cell-based
Cannabinoid receptor 2 [1] = target: T1, Cannabinoid receptor 2 (Homo sapiens, UniProt P34972); assay: Displacement of [3H]-CP55940 from human CB2 receptor expressed in CHO cells after 1 hr; format: cell-based
Cannabinoid receptor 2 [2] = target: T1, Cannabinoid receptor 2; assay: Agonist activity at human CB2 receptor expressed in CHO cells assessed as stimulation of [35S]-GTPgammaS binding; format: functional, cell-based
Cannabinoid receptor 2 [3] = target: T1, Cannabinoid receptor 2; assay: Agonist activity at human CB2 receptor expressed in CHO cells assessed as stimulation of [35S]-GTPgammaS binding relative to basal activity; format: functional, cell-based

T1 sequence (P34972 whole entry): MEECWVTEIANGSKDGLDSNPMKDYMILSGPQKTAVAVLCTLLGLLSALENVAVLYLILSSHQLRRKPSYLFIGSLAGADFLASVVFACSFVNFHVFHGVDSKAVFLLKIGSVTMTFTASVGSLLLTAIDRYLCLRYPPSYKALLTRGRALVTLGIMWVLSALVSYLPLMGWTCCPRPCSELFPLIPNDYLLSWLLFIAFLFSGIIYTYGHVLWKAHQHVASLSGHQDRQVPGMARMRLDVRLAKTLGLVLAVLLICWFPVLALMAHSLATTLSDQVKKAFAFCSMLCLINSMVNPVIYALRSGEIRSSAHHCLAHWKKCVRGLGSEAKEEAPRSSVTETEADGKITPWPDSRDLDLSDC
Chain of Cannabinoid receptor 1 (P21554 whole entry): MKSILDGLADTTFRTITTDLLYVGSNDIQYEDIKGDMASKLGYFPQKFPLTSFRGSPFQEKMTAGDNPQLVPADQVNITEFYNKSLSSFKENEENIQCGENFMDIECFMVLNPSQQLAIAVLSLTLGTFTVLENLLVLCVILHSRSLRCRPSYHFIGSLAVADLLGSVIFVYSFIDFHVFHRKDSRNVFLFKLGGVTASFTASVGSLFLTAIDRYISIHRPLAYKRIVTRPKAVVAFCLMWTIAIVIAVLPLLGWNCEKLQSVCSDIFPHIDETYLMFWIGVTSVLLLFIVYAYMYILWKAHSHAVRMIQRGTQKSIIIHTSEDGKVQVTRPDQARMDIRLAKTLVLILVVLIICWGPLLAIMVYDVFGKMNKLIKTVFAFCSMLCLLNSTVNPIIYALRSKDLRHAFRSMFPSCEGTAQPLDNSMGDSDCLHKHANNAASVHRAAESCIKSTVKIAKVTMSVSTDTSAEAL

Row | SMILES | Ki (Cannabinoid receptor 1) [nM] | Ki (Cannabinoid receptor 2 [1]) [nM] | EC50 (Cannabinoid receptor 2 [2]) [nM] | Emax (Cannabinoid receptor 2 [3]) [%]
1 | CCn1cc(C(=O)NC(C)C23CC4CC(CC(C4)C2)C3)c(=O)cc1-c1ccccc1 (racemic) | > 3000 |  |  | 
2 | CCCCCn1cc(NC(=O)C2CCCCC2)c(=O)cc1-c1ccccc1 | > 3000 | 51 | 25 | 43
3 | CCCCCn1cc(C(=O)NC23CC4CC(CC(C4)C2)C3)c(=O)cc1-c1ccccc1 | 592 |  |  | 
4 | CCCCCn1cc(C(=O)NC23CC4CC(CC(C4)C2)C3)c(=O)cc1-c1ccccc1Cl | 34.4 | 0.7 |  | 
5 | Cc1c(C(=O)c2cccc3ccccc23)c2cccc3c2n1[C@H](CN1CCOCC1)CO3 |  |  |  | 207
6 | CCCCCn1cc(C(=O)NC2CCCCC2)c(=O)cc1-c1ccccc1 | 929 |  |  | 62
7 | CCCCCn1cc(C(=O)NC23CC4CC(CC(C4)C2)C3)c(=O)cc1-c1cccc(Cl)c1 | 51.2 | 1.8 |  | 
8 | CCCCn1cc(C(=O)NC23CC4CC(CC(C4)C2)C3)c(=O)cc1-c1ccccc1 | > 1000 |  |  | 
9 | CCCCCn1cc(NC(=O)OC(C)(C)C)c(=O)cc1-c1ccccc1 | > 3000 | 209 | 164 | 26
10 | CCCCCn1cc(C(=O)N[C@@H]2CCCc3ccccc32)c(=O)cc1-c1ccccc1 | 131 |  |  | 42
11 | CCCCCn1cc(C(=O)NC2CCCCC2)c(=O)cc1C(C)(C)C | > 3000 |  |  | 
12 | CCCCCCn1cc(C(=O)NC23CC4CC(CC(C4)C2)C3)c(=O)cc1-c1ccccc1 | 596 |  |  | 
13 | CCCCCn1cc(C(=O)NC23CC4CC(CC(C4)C2)C3)c(=O)cc1C(C)(C)C | > 3000 |  |  | 212
14 | CC(NC(=O)c1cn(-c2ccccc2)c(-c2ccccc2)cc1=O)C12CC3CC(CC(C3)C1)C2 (racemic) | > 3000 | > 3000 |  | 
15 | CCCCCn1cc(C(=O)NC23CC4CC(CC(C4)C2)C3)c(=O)cc1-c1ccc(OC)cc1 | 384 | 91.1 |  | 
16 | CCCCCn1cc(C(=O)NC(C)C23CC4CC(CC(C4)C2)C3)c(=O)cc1-c1ccccc1 (racemic) | 368 |  |  | 46
17 | CCCC(C)(C)c1ccc2c(c1)OC(C)(C)[C@@H]1CC=C(O)C[C@@H]21 |  | 20.3 | 146 | 201
18 | CCCCCn1cc(C(=O)NCC23CC4CC(CC(C4)C2)C3)c(=O)cc1-c1ccccc1 | 626 |  |  | 
19 | CCCCCn1cc(C(=O)NC23CC4CC(CC(C4)C2)C3)c(=O)cc1C | > 3000 |  |  | 148
20 | CCCCCn1cc(C(=O)N[C@H]2CCCc3ccccc32)c(=O)cc1-c1ccccc1 | > 1000 |  |  | 48
21 | CCCCCn1cc(C(=O)NC23CC4CC(CC(C4)C2)C3)c(=O)cc1-c1ccc(Cl)cc1 | > 1000 |  |  | 
22 | CCCCCn1cc(C(=O)NC2CCCCC2)c(=S)cc1-c1ccccc1 | > 1000 | 48 | 27 | 45
23 | CCCCCn1cc(C(=O)Nc2cccc(C(F)(F)F)c2)c(=O)cc1-c1ccccc1 | > 3000 | 25.8 | 14 | 42
24 | CCCCCn1cc(C(=O)Nc2cccc(C(F)(F)F)c2)c(=O)cc1-c1ccc(Cl)cc1 | > 1000 | > 1000 | 158 | 42
25 | CCCCCn1cc(C(=O)NC23CC4CC(CC(C4)C2)C3)c(=O)cc1-c1ccc(C)cc1 | 134 | 13.2 |  | 
26 | CCCCCn1cc(C(=O)NC2CCCCC2)c(=O)cc1-c1ccc(Cl)cc1 | > 1000 |  |  | 39
27 | CCCCCCC(C)(C)c1ccc([C@@H]2C[C@H](O)CC[C@H]2CCCO)c(O)c1 |  |  |  | 230
28 | CCCCCn1cc(C(=O)NC23CC4CC(CC(C4)C2)C3)c(=S)cc1-c1ccccc1 | > 1000 | 18.8 | 17 | 30
29 | CCCCCn1cc(C(=O)NN2CCCCC2)c(=O)cc1-c1ccccc1 | > 3000 |  |  | 48
